Measurements as given in patent publication US20210369720A1, “SYNERGISTIC COMPOSITION HAVING NEUROPROTECTIVE PROPERTIES AND METHODS OF USE THEREOF” (Rutgers, The State University of New Jersey, priority 2018, published 2021).

Legend:
[1] = test system: p-α-Syn; assay: Western blot of p-α-Syn in SH-SY5Y cells challenged with α-Syn PFF; type: cell-based, Human; conditions: SH-SY5Y cells challenged with mouse α-Syn PFF for 7 days; caffeine and/or EHT added to the medium
Procedure: (§1) Human neuroblastoma SH-SY5Y cells were cultured in DMEM-F12 with 10% FBS. At 50% confluency, cells were treated with 1 gg/ml mouse α-Syn PFF in DMEM-F12 with 1% FBS for 7 days. Medium was refreshed every 3 days. Cell harvesting was done with 2% SDS in PBS supplemented with protease inhibitor (Millipore) and phosphatase inhibitor (Sigma-Aldrich). Lysates were sonicated and boiled at 95° C. for 5 minutes. Protein concentration was determined by bicinchonic acid (BCA) method (Pierce), equal amount of protein was separated on 5-20% SDS-PAGE gel (Genescript) and transferred to nitrocellulose or PVDF membrane (Biorad). Following transfer, membranes were blocked for 1 hour at room temperature in blocking buffer (Li-Cor) or 5% (w/v) BSA/TBS-Tween 0.1% (v/v). Primary antibodies were diluted in blocking buffer or 5% (w/v) BSA/TBS-Tween 0.1% (v/v) and incubated with the membranes at 4° C. overnight. Membranes were washed three times in TBS-Tween and incubated in diluted IRDye 800CW or HRP conjugated secondary antibody for 1 hour at room temperature. Following washing, membranes were scanned by Li-Cor Odyssey CLx infrared imaging system or treated with the Western Lightning ECL-plus reagents (PerkinElmer) and exposed to autoradiography films (LabScientific).

[2] = test system: PP2A; assay: Western blot of PP2A methylation, ipsilateral striatal tissue lysates of α-Syn PFF inoculated mice; type: in vivo; conditions: EHT 12 mg/kg/day and/or caffeine 50 mg/kg/day, vs untreated α-Syn PFF inoculated mice
Source text: (§2) Thy1-α-synuclein transgenic mice (Syn^Tg) on BDF1 background overexpressing human wild-type α-synuclein under the control of the Thy1 promoter were maintained by mating heterozygous transgenic females with WT BDF1 males (Rockenstein E, et al. (2002) Differential neuropathological alterations in transgenic mice expressing alpha-synuclein from the platelet-derived growth factor and Thy-1 promoters. J Neurosci Res 68(5):568-578). BDF1 mice (mixed C57BL/6-DBA/2) were generated every three months by mating female C57BL/6 (The Jackson Laboratory) and male DBA/2 mice (Charles River). Experiments were performed with male transgenic mice and their WT littermates. […] Wild-type littermates received regular water and control chow. […] At two months of age, mice were inoculated with α-Syn PFF unilaterally in the striatum. These treatments continued throughout the experiment until animals were sacrificed. Mice were weighed and their food and water intake was quantified weekly. Animals were housed 2-5/cage in an AAALAC approved facility in a temperature- and humidity-controlled environment under a 12-hour light/dark cycle and were maintained on a diet of lab chow and water ad libitum. All animal procedures were approved by the Rutgers-Robert Wood Johnson Medical School Institutional Animal Care and Use Committee and were performed according to the National Institutes of Health Guide for the Care and Use of Laboratory Animals.
α-Syn PFF solution was sonicated at 60% amplitude 30 times (0.5 sec on, 0.5 sec off). During the stereotactic surgery, two month old WT C57BL/6 mice were anesthetized by Ketamine/xylazine (90/4.5 mg/kg, i.p., Ketaset from Zoetis, and Anased from Akorn) and positioned in a digital stereotaxic apparatus (Stoelting, Wood Dale, Ill.). […]
(§3) Human neuroblastoma SH-SY5Y cells were cultured in DMEM-F12 with 10% FBS. […] Protein concentration was determined by bicinchonic acid (BCA) method (Pierce), equal amount of protein was separated on 5-20% SDS-PAGE gel (Genescript) and transferred to nitrocellulose or PVDF membrane (Biorad). […]

[3] = test system: Syn^Tg mice; assay: Morris Water Maze, Syn^Tg mice; type: in vivo; conditions: EHT 12 mg/kg/day in chow and/or caffeine 50 mg/kg/day in drinking water from weaning until six months of age, vs untreated Syn^Tg mice
Source text: as §2, with “All animal procedures were approved by the Rutgers-Robert Wood Johnson Medical School Institutional Animal Care and Use Committee and were performed according to the National Institutes of Health Guide for the Care and Use of Laboratory Animals.” left out

[4] = test system: α-Syn PFF inoculated WT mice; assay: Wire Hang test, α-Syn PFF inoculated WT mice; type: in vivo; conditions: EHT 12 mg/kg/day in diet and/or caffeine 50 mg/kg/day in drinking water from weaning, 6 months post-inoculation
Source text: as §2, with “All animal procedures were approved by the Rutgers-Robert Wood Johnson Medical School Institutional Animal Care and Use Committee and were performed according to the National Institutes of Health Guide for the Care and Use of Laboratory Animals.” left out

[5] = test system: TH positive dopaminergic neurons of the substantia nigra; assay: Nigral TH positive neuron count, α-Syn PFF inoculated WT mice; type: in vivo; conditions: each compound individually, PFF alone reduced neurons by 51% vs PBS
Source text: as §2, with “All animal procedures were approved by the Rutgers-Robert Wood Johnson Medical School Institutional Animal Care and Use Committee and were performed according to the National Institutes of Health Guide for the Care and Use of Laboratory Animals.” left out

[6] = test system: PP2A; assay: Western blot of PP2A methylation, striatal tissue lysates of Syn^Tg mice; type: in vivo; conditions: normalized to total PP2A, EHT 12 mg/kg/day and/or caffeine 50 mg/kg/day
Source text: as §2, §1

[7] = test system: Tyrosine hydroxylase (TH); assay: Striatal TH staining, α-Syn PFF inoculated WT mice; type: in vivo; conditions: EHT 12 mg/kg/day and/or caffeine 50 mg/kg/day, vs untreated α-Syn PFF inoculated mice
Source text: as §2, with “All animal procedures were approved by the Rutgers-Robert Wood Johnson Medical School Institutional Animal Care and Use Committee and were performed according to the National Institutes of Health Guide for the Care and Use of Laboratory Animals.” left out

[8] = test system: Syn^Tg mice; assay: Rotarod, Syn^Tg mice; type: in vivo; conditions: EHT 12 mg/kg/day in chow and/or caffeine 50 mg/kg/day in drinking water from weaning until six months of age, vs untreated Syn^Tg mice
Source text: as §2, with “All animal procedures were approved by the Rutgers-Robert Wood Johnson Medical School Institutional Animal Care and Use Committee and were performed according to the National Institutes of Health Guide for the Care and Use of Laboratory Animals.” left out

[9] = test system: Syn^Tg mice; assay: Wire Hang test, Syn^Tg mice; type: in vivo; conditions: EHT 12 mg/kg/day in chow and/or caffeine 50 mg/kg/day in drinking water from weaning until six months of age, vs untreated Syn^Tg mice
Source text: as §2, with “All animal procedures were approved by the Rutgers-Robert Wood Johnson Medical School Institutional Animal Care and Use Committee and were performed according to the National Institutes of Health Guide for the Care and Use of Laboratory Animals.” left out

[10] = test system: α-Syn PFF inoculated WT mice; assay: Nesting behavior, α-Syn PFF inoculated WT mice; type: in vivo; conditions: EHT 12 mg/kg/day in diet and/or caffeine 50 mg/kg/day in drinking water from weaning, 6 months post-inoculation
Source text: as §2, with “All animal procedures were approved by the Rutgers-Robert Wood Johnson Medical School Institutional Animal Care and Use Committee and were performed according to the National Institutes of Health Guide for the Care and Use of Laboratory Animals.” left out

[11] = test system: MAP2; assay: Immunofluorescence staining of MAP2 in the cortex, Syn^Tg mice; type: in vivo; conditions: EHT 12 mg/kg/day and/or caffeine 50 mg/kg/day until six months of age
Source text: as §2, with “All animal procedures were approved by the Rutgers-Robert Wood Johnson Medical School Institutional Animal Care and Use Committee and were performed according to the National Institutes of Health Guide for the Care and Use of Laboratory Animals.” left out

[12] = test system: Syn^Tg mice; assay: Nesting behavior, Syn^Tg mice; type: in vivo; conditions: EHT 12 mg/kg/day in chow and/or caffeine 50 mg/kg/day in drinking water from weaning until six months of age, vs untreated Syn^Tg mice
Source text: as §2, with “All animal procedures were approved by the Rutgers-Robert Wood Johnson Medical School Institutional Animal Care and Use Committee and were performed according to the National Institutes of Health Guide for the Care and Use of Laboratory Animals.” left out

[13] = test system: dopamine; assay: Striatal dopamine content by HPLC-MS, α-Syn PFF inoculated WT mice; type: in vivo; conditions: each compound alone, EHT 12 mg/kg/day or caffeine 50 mg/kg/day, vs untreated α-Syn PFF inoculated mice
Source text: as §2, with “All animal procedures were approved by the Rutgers-Robert Wood Johnson Medical School Institutional Animal Care and Use Committee and were performed according to the National Institutes of Health Guide for the Care and Use of Laboratory Animals.” left out

[14] = test system: SH-SY5Y cells; assay: Cytotoxicity of α-Syn PFF by propidium iodide (PI) exclusion in SH-SY5Y cells; type: cell-based, Human; conditions: SH-SY5Y cells challenged with mouse α-Syn PFF for seven days; vs untreated α-Syn PFF-challenged cells (2.5 fold increase of PI positive cells)
[15] = test system: phosphorylated α-synuclein (p-α-Syn); assay: Western blot of p-α-Syn in cortical tissue lysates, Syn^Tg mice; type: in vivo; conditions: EHT 12 mg/kg/day and/or caffeine 50 mg/kg/day until six months of age, vs untreated Syn^Tg mice
Source text: as §2, with “Animals were housed 2-5/cage in an AAALAC approved facility in a temperature- and humidity-controlled environment under a 12-hour light/dark cycle and were maintained on a diet of lab chow and water ad libitum. All animal procedures were approved by the Rutgers-Robert Wood Johnson Medical School Institutional Animal Care and Use Committee and were performed according to the National Institutes of Health Guide for the Care and Use of Laboratory Animals.” left out
as §3

[16] = test system: A53T mutant α-synuclein fibril injections in the striatum; conditions: mice, chronic caffeine treatment; cited from earlier work
[17] = test system: α-Syn PFF inoculated WT mice; assay: Morris Water Maze, α-Syn PFF inoculated WT mice; type: in vivo; conditions: EHT 12 mg/kg/day and/or caffeine 50 mg/kg/day, 6 months post-inoculation, test also not affected by PFF inoculation
Source text: as §2, with “All animal procedures were approved by the Rutgers-Robert Wood Johnson Medical School Institutional Animal Care and Use Committee and were performed according to the National Institutes of Health Guide for the Care and Use of Laboratory Animals.” left out

[18] = test system: PP2A; assay: Western blot of PP2A methylation in SH-SY5Y cells challenged with α-Syn PFF; type: cell-based, Human; conditions: SH-SY5Y cells challenged with mouse α-Syn PFF for 7 days; caffeine and/or EHT added to the medium
Procedure: as §1

[19] = test system: phosphorylated α-synuclein (p-α-Syn); assay: Immunohistochemical staining of p-α-Syn, α-Syn PFF inoculated WT mice; type: in vivo; conditions: EHT 12 mg/kg/day and/or caffeine 50 mg/kg/day, vs untreated α-Syn PFF inoculated mice
Source text: as §2
α-Syn PFF solution was sonicated at 60% amplitude 30 times (0.5 sec on, 0.5 sec off). During the stereotactic surgery, two month old WT C57BL/6 mice were anesthetized by Ketamine/xylazine (90/4.5 mg/kg, i.p., Ketaset from Zoetis, and Anased from Akorn) and positioned in a digital stereotaxic apparatus (Stoelting, Wood Dale, Ill.). A midline sagittal incision was made in the scalp, and a hole was drilled in the skull over the right striatum according to the coordinates below. All injections were made using a Hamilton neuros syringe equipped with a 33 gauge needle and attached to a Quintessential Stereotaxic Injector (Stoelting, Wood Dale, Ill.). A total of 5∝g/2.5 ul of α-Syn PFF was infused in the dorsal striatum (+0.2 mm relative to Bregma, +2.0 mm from midline, +2.6 mm beneath the dura) at a delivery rate of 0.2∝l/min (61). The needle was kept in place for 5 min following the infusion to prevent reflux before withdrawing.
Immunohistochemical analyses were performed as described previously (Lee et al., 2011; 2012). Mice were perfused transcardially with PBS, and brains were removed and post-fixed in 10% formalin at 4° C. overnight. Fixed brains were then sectioned coronally in 30 am thickness using a cryostat and collected as sets of slices with the same interval. Free-floating sections were blocked by 1% BSA and 0.2% Triton X100 in PBS. Sections were then incubated with primary antibody overnight at 4° C. and biotinylated secondary antibody for 1 hour at room temperature.
Vectastain elite ABC kit (Vector Laboratories, Burlingame, Calif.) and 3,3′-diaminobenzidine (Sigma-Aldrich) were used for amplifying and color development. Images were captured by Nikon Eclipse 55i. Staining intensity and phosphorylated α-synuclein (p-α-Syn) aggregate counts were obtained by Image Pro Plus. Intensity calibration was set to the level of a blank area in each image. HSI (hue, saturation and intensity) was used for the color selection with the standard parameters of H: 0-30, S: 0-255 and I: 0-160. […]

[20] = test system: α-Syn PFF inoculated WT mice; assay: Rotarod, α-Syn PFF inoculated WT mice; type: in vivo; conditions: EHT 12 mg/kg/day in diet and/or caffeine 50 mg/kg/day in drinking water from weaning, 6 months post-inoculation
Source text: as §2, with “All animal procedures were approved by the Rutgers-Robert Wood Johnson Medical School Institutional Animal Care and Use Committee and were performed according to the National Institutes of Health Guide for the Care and Use of Laboratory Animals.” left out

Cn1c(=O)c2c(ncn2C)n(C)c1=O [Caffeine, 1,3,7-trimethylxanthine, reference compound]
p-α-Syn levels [1]: no effect
methyl-PP2A levels [2]: insignificant increase
performance on the Morris Water Maze [3]: did not show any improvement
performance on the wire hang test [4]: did not affect performance
prevention of the reduction of TH positive dopaminergic neurons of the substantia nigra [5]: did not prevent this reduction
Demethylated PP2A (demethyl-PP2A) levels [6]: not affected
Methylated PP2A (Methyl-PP2A) levels [6]: did not change
TH staining of dopaminergic terminals in the striatum (ipsilateral and contralateral) [7]: no effect
performance on the rotarod [8]: did not show any improvement
performance on the wire hang test [9]: did not show any improvement
nesting behavior (nest building) [10]: did not affect performance
MAP2 in the cortex (neuritic integrity) [11]: did not improve this profile
nesting behavior [12]: did not show any improvement
dopamine (DA) content in lysates of the ipsilateral striatum, benefit in words [13]: did not have a significant benefit
cytotoxicity of α-Syn PFF, number of PI positive cells (cell viability) [14]: modestly protected
p-α-Syn levels by Western blot, cortical tissue lysates [15]: no significant effect
protection against A53T mutant α-synuclein fibril injections in the striatum [16]: protect
Learning and memory task on the Morris Water Maze [17]: not affected
demethylated PP2A levels [18]: partially reversed this trend
methylated PP2A levels [18]: partially reversed this trend
p-α-Syn in the contralateral striatum [19]: partially but insignificantly reduced
p-α-Syn in the ipsilateral striatum [19]: partially but insignificantly reduced
performance on the rotarod [20]: did not affect performance
